# Assay results reported in PMC2630426 (Journal of medicinal chemistry, 2008).
# Where two headings read alike, the source gives them in different places.
# Assays:
# μ opioid receptor [1] = conditions: cited from earlier work; for Ki: read-out: Ki^μ
# μ opioid receptor [2] = conditions: cited from earlier work
# δ opioid receptor [3] = biological target: T1, δ opioid receptor (Rattus norvegicus, UniProt P33533); conditions: cited from earlier work
# δ opioid receptor [4] = biological target: T1, δ opioid receptor; conditions: read-out: Ki^δ; cited from earlier work
# δ opioid receptor [5] = biological target: T2, δ opioid receptor (Mus musculus, UniProt P32300); conditions: cited from earlier work; for Ke^δ: MVD, DPDPE as δ agonist
# T2 sequence (P32300 whole entry): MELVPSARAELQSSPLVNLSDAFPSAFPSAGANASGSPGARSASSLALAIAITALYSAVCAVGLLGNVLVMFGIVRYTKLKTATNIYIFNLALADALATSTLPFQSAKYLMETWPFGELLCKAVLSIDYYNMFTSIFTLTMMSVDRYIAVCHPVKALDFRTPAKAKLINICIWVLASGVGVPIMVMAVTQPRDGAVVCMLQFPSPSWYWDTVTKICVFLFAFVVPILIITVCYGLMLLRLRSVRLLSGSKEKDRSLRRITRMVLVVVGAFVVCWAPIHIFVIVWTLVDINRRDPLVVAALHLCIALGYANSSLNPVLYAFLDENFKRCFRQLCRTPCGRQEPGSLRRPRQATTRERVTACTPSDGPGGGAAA
# κ opioid receptor [6] = biological target: T3, κ opioid receptor (Cavia porcellus, UniProt P41144); conditions: GPI, U50,488 as κ agonist, cited from earlier work
# T3 sequence (P41144 whole entry): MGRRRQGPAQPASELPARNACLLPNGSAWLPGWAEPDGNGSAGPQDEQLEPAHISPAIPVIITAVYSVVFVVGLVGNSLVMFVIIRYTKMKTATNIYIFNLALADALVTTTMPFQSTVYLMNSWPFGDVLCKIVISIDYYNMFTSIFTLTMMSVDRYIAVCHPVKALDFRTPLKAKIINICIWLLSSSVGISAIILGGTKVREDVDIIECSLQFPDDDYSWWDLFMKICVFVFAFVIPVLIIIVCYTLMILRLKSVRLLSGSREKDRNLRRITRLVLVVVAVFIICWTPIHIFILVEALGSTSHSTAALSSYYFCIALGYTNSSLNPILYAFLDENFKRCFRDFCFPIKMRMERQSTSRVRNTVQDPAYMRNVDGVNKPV
# δ opioid receptor [7] = biological target: T1, δ opioid receptor; conditions: ref Schiller et al. 4, cited from earlier work
# μ opioid receptor [8] = conditions: GPI, TAPP as μ agonist, cited from earlier work
# μ opioid receptor [9] = biological target: T4, μ opioid receptor (Rattus norvegicus, UniProt P33535); conditions: cited from earlier work
# T4 sequence (P33535 whole entry): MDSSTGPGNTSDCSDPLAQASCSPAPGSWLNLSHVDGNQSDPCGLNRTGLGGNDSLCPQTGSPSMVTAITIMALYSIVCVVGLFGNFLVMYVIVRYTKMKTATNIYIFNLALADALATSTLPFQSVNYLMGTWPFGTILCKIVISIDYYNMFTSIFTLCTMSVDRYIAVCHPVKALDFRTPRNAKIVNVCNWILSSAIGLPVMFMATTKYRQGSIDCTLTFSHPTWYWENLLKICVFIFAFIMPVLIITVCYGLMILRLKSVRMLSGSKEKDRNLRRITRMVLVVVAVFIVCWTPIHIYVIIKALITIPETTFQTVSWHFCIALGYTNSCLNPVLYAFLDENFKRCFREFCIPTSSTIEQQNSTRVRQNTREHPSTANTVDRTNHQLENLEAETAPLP
# κ opioid receptor [10] = biological target: T3, κ opioid receptor; conditions: read-out: Ki^κ, opioid receptor binding, cited from earlier work
# μ opioid receptor [11] = biological target: T4, μ opioid receptor; experiment: rat brain membrane binding assay, μ opioid receptor; conditions: based on the receptor binding constants (Ki values)
# δ opioid receptor [12] = biological target: T2, δ opioid receptor; experiment: MVD assay, δ opioid antagonist potency; type: biochemical
# κ opioid receptor [13] = biological target: T3, κ opioid receptor; experiment: GPI assay, κ opioid antagonist potency; type: biochemical, guinea pig
# [14] = endomorphin-derived μ antagonists
# T1 sequence (P33533 whole entry): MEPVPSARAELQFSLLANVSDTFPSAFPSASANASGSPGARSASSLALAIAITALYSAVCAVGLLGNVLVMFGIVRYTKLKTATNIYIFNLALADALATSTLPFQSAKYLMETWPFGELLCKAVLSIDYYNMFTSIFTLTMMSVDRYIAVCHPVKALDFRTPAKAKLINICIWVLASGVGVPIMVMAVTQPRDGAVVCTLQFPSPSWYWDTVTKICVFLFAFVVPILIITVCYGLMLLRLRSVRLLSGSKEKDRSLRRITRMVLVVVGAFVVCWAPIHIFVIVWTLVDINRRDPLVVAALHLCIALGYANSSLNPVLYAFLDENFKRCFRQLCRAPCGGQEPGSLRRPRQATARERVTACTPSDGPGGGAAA
compound,measurement,setting,value
H-D-Phe-c[Cys-Tyr-D-Trp-Orn-Thr-Pen]-Thr-NH2 [CTOP],IC50,"μ opioid receptor [1]; read-out: IC50^μ, somatostatin-derived μ opioid antagonist",2.8 nM
"[Dmt^1,D-2-Nal^4]endomorphin-2 [antanal-2]",Ki,μ opioid receptor [1]; [14],1.52 nM
H-Dmt-Sar-Phe-D-Nal-NH2,Ke^μ,μ opioid receptor [2],2.34 nM
same,Ke^δ,δ opioid receptor [3],305 nM
"Dhp-c[N^ε,N^β-carbonyl-D-Lys^2,Dap^5]enkephalinamide",Ki,δ opioid receptor [4],273 nM
same,Ki,μ opioid receptor [1],15.5 nM
(2S)-Mdp-c[D-Pen-Gly-Phe(pF)-Pen]-Phe-OH (disulfide) [compound 4],Ke^δ,δ opioid receptor [5]; ref Schiller et al. 4,0.785 ± 0.135 nM
same,Ke ratio δ/μ/κ,"δ opioid receptor [5]; from Ke values of GPI and MVD assays, ref Schiller et al. 4",1/851/5570
same,Ke^κ,κ opioid receptor [6]; ref Schiller et al. 4,4370 ± 860 nM
same,Ki ratio δ/μ/κ,δ opioid receptor [7]; based on Ki values,1/175/1600
same,Ke^μ,μ opioid receptor [8]; ref Schiller et al. 4,668 ± 40 nM
"[Dmt^1,D-2-Nal^4]endomorphin-1 [antanal-1]",Ki,μ opioid receptor [1]; [14],2.38 nM
(2S)-Mdp-c[D-Pen-Gly-Phe(pF)-Pen]-Phe-OH (disulfide) (YCGFCF) [compound 4],Ki,"μ opioid receptor [9]; read-out: Ki^μ, opioid receptor binding, ref Schiller et al. 4",406 ± 21 nM
same,Ki,"δ opioid receptor [7]; read-out: Ki^δ, opioid receptor binding",2.32 ± 0.4 nM
same,Ki,κ opioid receptor [10]; ref Schiller et al. 4,3710 ± 400 nM
"CC[C@H](C)[C@H](NC(=O)[C@H](CCCNC(=N)N)NC(=O)[C@H](CCCNC(=N)N)NC(=O)[C@H](CC(C)C)NC(=O)[C@H](Cc1ccccc1)NC(=O)CNC(=O)CNC(=O)[C@@H](C)Cc1c(C)cc(C(N)=O)cc1C)C(=O)N[C@@H](CCCNC(=N)N)C(=O)N1CCC[C@H]1C(=O)N[C@@H](CCCCN)C(N)=O [compound 5, [(2S)-Mdcp^1]Dyn A(1-11)-NH2]",Ki ratio μ/δ/κ,μ opioid receptor [11],1/1/1
same,Kb,δ opioid receptor [12],843 ± 88 nM
same,Kb,κ opioid receptor [13],5.96 ± 0.8 nM
[(2S)-Mdp^1]Dyn A(1-11)-NH2 [compound 6],Ke^δ,δ opioid receptor [5]; ref Lu et al. 3,3320 ± 520 nM
same,Ke^κ,κ opioid receptor [6]; ref Lu et al. 3,3.92 ± 0.65 nM
same,Ke^μ,μ opioid receptor [8]; ref Lu et al. 3,925 ± 94 nM
(2S)-Mdp-c[D-Cys-Gly-Phe(pNO2)-D-Cys]NH2 (disulfide) [compound 2],Ke^δ,δ opioid receptor [5]; ref Schiller et al. 2,3.48 ± 0.28 nM
same,Ke^κ,κ opioid receptor [6]; ref Schiller et al. 2,6.41 ± 0.18 nM
same,Ki ratio μ/δ/κ,"μ opioid receptor [9]; based on Ki values, ref Schiller et al. 2",1/2/42
same,Ke^μ,μ opioid receptor [8]; ref Schiller et al. 2,1.48 ± 0.18 nM
same,Ki,κ opioid receptor [10]; ref Schiller et al. 2,92.8 ± 5.3 nM
